From US8410132B2, “Modulators of cystic fibrosis transmembrane conductance regulator” (Vertex Pharmaceuticals Incorporated, priority 2007, dated 2013)

Molecular target: T1, ΔF508-CFTR (Homo sapiens, UniProt P13569, DEL508-508)
T1 construct: expressed in transfected cells; host or cells: Fisher rat epithelial (FRT) cells expressing ΔF508-CFTR (Ussing chamber); NIH3T3 cells stably expressing ΔF508-CFTR (whole-cell recordings)
Assay: Assay for detecting and measuring ΔF508-CFTR potentiation properties of compounds (membrane potential optical method / Ussing chamber)
Assay type: cell-based
Settings: for Emax: relative efficacy, efficacy compared to that of the known potentiator genistein; for EC50: ΔF508-CFTR potentiation
Source text: Assays for Detecting and Measuring ΔF508-CFTR Potentiation Properties of Compounds
Membrane Potential Optical Methods for Assaying ΔF508-CFTR Modulation Properties of Compounds
The optical membrane potential assay utilized voltage-sensitive FRET sensors described by Gonzalez and Tsien (See, Gonzalez, J. E. and R. Y. Tsien (1995) “Voltage sensing by fluorescence resonance energy transfer in single cells” Biophys J 69(4): 1272-80, and Gonzalez, J. E. and R. Y. Tsien (1997) “Improved indicators of cell membrane potential that use fluorescence resonance energy transfer” Chem Biol 4(4): 269-77) in combination with instrumentation for measuring fluorescence changes such as the Voltage/Ion Probe Reader (VIPR) (See, Gonzalez, J. E., K. Oades, et al. (1999) “Cell-based assays and instrumentation for screening ion-channel targets” Drug Discov Today 4(9): 431-439).
These voltage sensitive assays are based on the change in fluorescence resonant energy transfer (FRET) between the membrane-soluble, voltage-sensitive dye, DiSBAC2(3), and a fluorescent phospholipid, CC2-DMPE, which is attached to the outer leaflet of the plasma membrane and acts as a FRET donor. Changes in membrane potential (Vm) cause the negatively charged DiSBAC2(3) to redistribute across the plasma membrane and the amount of energy transfer from CC2-DMPE changes accordingly. The changes in fluorescence emission were monitored using VIPR™ II, which is an integrated liquid handler and fluorescent detector designed to conduct cell-based screens in 96- or 384-well microtiter plates.
Identification of Potentiator Compounds
Typical protocol utilized a basolateral to apical membrane Cl^− concentration gradient. To set up this gradient, normal ringers was used on the basolateral membrane and was permeabilized with nystatin (360 μg/ml), whereas apical NaCl was replaced by equimolar sodium gluconate (titrated to pH 7.4 with NaOH) to give a large Cl^− concentration gradient across the epithelium. All experiments were performed 30 min after nystatin permeabilization. Forskolin (10 μM) and all test compounds were added to both sides of the cell culture inserts. The efficacy of the putative ΔF508-CFTR potentiators was compared to that of the known potentiator, genistein.
Fisher rat epithelial (FRT) cells expressing ΔF508-CFTR (FRTΔ^F508-CFTR) were used for Ussing chamber experiments for the putative ΔF508-CFTR modulators identified from our optical assays. The cells were cultured on Costar Snapwell cell culture inserts and cultured for five days at 37° C. and 5% CO2 in Coon's modified Ham's F-12 medium supplemented with 5% fetal calf serum, 100 U/ml penicillin, and 100 μg/ml streptomycin. Prior to use for characterizing the potentiator activity of compounds, the cells were incubated at 27° C. for 16-48 hrs to correct for the ΔF508-CFTR. To determine the activity of corrections compounds, the cells were incubated at 27° C. or 37° C. with and without the compounds for 24 hours.
Compounds of the invention are useful as modulators of ATP binding cassette transporters. Table 3 below illustrates the EC50 and relative efficacy of certain embodiments in Table 1.

T1 sequence (P13569 with tags, fused parts or gaps DEL508-508): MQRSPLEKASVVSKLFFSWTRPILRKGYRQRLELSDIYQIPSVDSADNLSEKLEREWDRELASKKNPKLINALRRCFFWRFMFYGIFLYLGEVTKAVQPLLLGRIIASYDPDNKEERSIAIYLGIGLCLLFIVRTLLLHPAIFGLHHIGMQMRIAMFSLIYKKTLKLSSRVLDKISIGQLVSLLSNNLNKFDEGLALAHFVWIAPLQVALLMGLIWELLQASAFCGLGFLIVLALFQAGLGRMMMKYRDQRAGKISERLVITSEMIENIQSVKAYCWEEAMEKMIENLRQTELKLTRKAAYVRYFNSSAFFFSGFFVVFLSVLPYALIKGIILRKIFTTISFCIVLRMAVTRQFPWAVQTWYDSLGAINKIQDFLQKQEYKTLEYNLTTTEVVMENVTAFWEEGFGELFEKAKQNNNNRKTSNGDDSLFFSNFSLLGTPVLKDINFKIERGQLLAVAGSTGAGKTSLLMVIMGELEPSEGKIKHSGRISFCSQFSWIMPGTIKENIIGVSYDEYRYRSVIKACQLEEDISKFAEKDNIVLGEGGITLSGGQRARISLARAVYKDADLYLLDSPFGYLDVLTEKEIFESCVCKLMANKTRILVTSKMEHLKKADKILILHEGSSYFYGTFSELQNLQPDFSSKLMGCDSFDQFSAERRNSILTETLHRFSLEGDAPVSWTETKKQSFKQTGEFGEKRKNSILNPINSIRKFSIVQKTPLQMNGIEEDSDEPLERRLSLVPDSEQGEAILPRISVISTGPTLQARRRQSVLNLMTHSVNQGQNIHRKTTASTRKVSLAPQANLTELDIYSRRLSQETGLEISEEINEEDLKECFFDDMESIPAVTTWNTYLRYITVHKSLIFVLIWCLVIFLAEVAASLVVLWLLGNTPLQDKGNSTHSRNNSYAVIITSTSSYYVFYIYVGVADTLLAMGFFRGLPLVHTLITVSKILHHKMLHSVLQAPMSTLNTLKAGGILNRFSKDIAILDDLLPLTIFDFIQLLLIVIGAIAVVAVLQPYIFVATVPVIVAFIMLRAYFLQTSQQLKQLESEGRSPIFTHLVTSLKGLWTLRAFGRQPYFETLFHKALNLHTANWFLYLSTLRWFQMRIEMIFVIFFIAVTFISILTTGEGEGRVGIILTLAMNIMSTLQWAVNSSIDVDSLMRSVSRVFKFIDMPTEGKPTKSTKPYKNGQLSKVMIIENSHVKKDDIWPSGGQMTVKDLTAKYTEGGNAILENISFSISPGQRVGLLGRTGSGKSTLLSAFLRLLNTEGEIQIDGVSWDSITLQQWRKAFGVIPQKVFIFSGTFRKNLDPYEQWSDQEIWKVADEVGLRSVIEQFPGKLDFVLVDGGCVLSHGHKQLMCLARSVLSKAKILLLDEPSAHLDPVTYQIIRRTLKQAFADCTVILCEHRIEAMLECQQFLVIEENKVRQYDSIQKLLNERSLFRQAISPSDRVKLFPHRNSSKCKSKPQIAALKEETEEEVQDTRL

SMILES | Emax [%] | EC50 [µM]
O=C(NC(c1ccccc1)c1ccccc1)c1c[nH]c2ccncc2c1=O [Cmpd 1, N-benzhydryl-4-oxo-1,4-dihydro-1,6-naphthyridine-3-carboxamide] | > 100 | < 10
O=C(NCC(c1ccccc1)c1ccccc1)c1c[nH]c2ccncc2c1=O [Cmpd 2, N-(2,2-diphenylethyl)-4-oxo-1,4-dihydro-1,6-naphthyridine-3-carboxamide] | 25 to 100 | < 10
CCCc1ccccc1NC(=O)c1c[nH]c2ccncc2c1=O [Cmpd 3, 4-oxo-N-(2-propylphenyl)-1,4-dihydro-1,6-naphthyridine-3-carboxamide] | 25 to 100 | < 10
CC(C)c1ccccc1NC(=O)c1c[nH]c2ccncc2c1=O [Cmpd 4, N-(2-isopropylphenyl)-4-oxo-1,4-dihydro-1,6-naphthyridine-3-carboxamide] | 25 to 100 | < 10
O=C(Nc1ccccc1-c1ccccc1)c1c[nH]c2ccncc2c1=O [Cmpd 5, N-(biphenyl-2-yl)-4-oxo-1,4-dihydro-1,6-naphthyridine-3-carboxamide] | 25 to 100 | < 10
O=C(Nc1ccc2cc[nH]c2c1)c1c[nH]c2ccncc2c1=O [Cmpd 6, N-(1H-indol-6-yl)-4-oxo-1,4-dihydro-1,6-naphthyridine-3-carboxamide] | < 25 | < 10
O=C(Nc1ccc(N2CCCC2)cc1C(F)(F)F)c1c[nH]c2ccncc2c1=O [Cmpd 7, 4-oxo-N-(4-(pyrrolidin-1-yl)-2-(trifluoromethyl)phenyl)-1,4-dihydro-1,6-naphthyridine-3-carboxamide] | 25 to 100 | < 10
O=C(NCC1(c2ccc(OC(F)(F)F)cc2)CCCC1)c1c[nH]c2ccncc2c1=O [Cmpd 8, 4-oxo-N-((1-(4-(trifluoromethoxy)phenyl)-cyclopentyl)methyl)-1,4-dihydro-1,6-naphthyridine-3-carboxamide] | 25 to 100 | < 10
CC(C)(C)c1cc(C(C)(C)C)c(NC(=O)c2c[nH]c3cnccc3c2=O)cc1O [Cmpd 9, N-(2,4-di-tert-butyl-5-hydroxyphenyl)-4-oxo-1,4-dihydro-1,7-naphthyridine-3-carboxamide] | 25 to 100 | < 10
CC(C)(C)c1cc2cc[nH]c2cc1NC(=O)c1c[nH]c2cnccc2c1=O [Cmpd 10, N-(5-tert-butyl-1H-indol-6-yl)-4-oxo-1,4-dihydro-1,7-naphthyridine-3-carboxamide] | 25 to 100 | < 10
O=C(Nc1ccc(N2CCCC2)cc1C(F)(F)F)c1c[nH]c2cnccc2c1=O [Cmpd 11, 4-oxo-N-(4-(pyrrolidin-1-yl)-2-(trifluoromethyl)phenyl)-1,4-dihydro-1,7-naphthyridine-3-carboxamide] | 25 to 100 | < 10
C[C@H]1CCCN1c1ccc(NC(=O)c2c[nH]c3cnccc3c2=O)c(C(F)(F)F)c1 [Cmpd 12, (S)-N-(4-(2-methylpyrrolidin-1-yl)-2-(trifluoromethyl)phenyl)-4-oxo-1,4-dihydro-1,7-naphthyridine-3-carboxamide] | 25 to 100 | < 10
CC1(c2cc(F)c(NC(=O)c3c[nH]c4cnccc4c3=O)cc2O)CCCCC1 [Cmpd 13, N-(2-fluoro-5-hydroxy-4-(1-methylcyclohexyl)phenyl)-4-oxo-1,4-dihydro-1,7-naphthyridine-3-carboxamide] | 25 to 100 | < 10
O=C(Nc1cc2[nH]ccc2cc1C(F)(F)F)c1c[nH]c2cnccc2c1=O [Cmpd 14, 4-oxo-N-(5-(trifluoromethyl)-1H-indol-6-yl)-1,4-dihydro-1,7-naphthyridine-3-carboxamide] | 25 to 100 | < 10
Cc1cc2c(=O)c(C(=O)Nc3cc4[nH]ccc4cc3C(F)(F)F)c[nH]c2cn1 [Cmpd 15, 6-methyl-4-oxo-N-(5-(trifluoromethyl)-1H-indol-6-yl)-1,4-dihydro-1,7-naphthyridine-3-carboxamide] | 25 to 100 | < 10
O=C(Nc1ccc2c(C(F)(F)F)c[nH]c2c1)c1c[nH]c2cnccc2c1=O [Cmpd 16, 4-oxo-N-(3-(trifluoromethyl)-1H-indol-6-yl)-1,4-dihydro-1,7-naphthyridine-3-carboxamide] | 25 to 100 | < 10
Cc1cc2c(=O)c(C(=O)Nc3cc(O)c(C4(C)CCCCC4)cc3F)c[nH]c2cn1 [Cmpd 17, N-(2-fluoro-5-hydroxy-4-(1-methylcyclohexyl)phenyl)-6-methyl-4-oxo-1,4-dihydro-1,7-naphthyridine-3-carboxamide] | < 25 | 10 to 25
CC1(C)CCCN(c2ccc(NC(=O)c3c[nH]c4cnccc4c3=O)c(C(F)(F)F)c2)C1 [Cmpd 18, N-(4-(3,3-dimethylpiperidin-l-yl)-2-(trifluoromethyl)phenyl)-4-oxo-1,4-dihydro-1,7-naphthyridine-3-carboxamide] | 25 to 100 | < 10
